The source of these data is patent publication US20080161232A1, “C5a Receptor Antagonist” (JERINI AG, priority 2005, published 2008).

For this experiment, the target named is T1, human C5aR(CD88) (Homo sapiens, UniProt P21730).
T1 construct: expressed in transfected cells; host or cells: rat basophilic leukemia cells (RBL)
T1 sequence (P21730 1-350): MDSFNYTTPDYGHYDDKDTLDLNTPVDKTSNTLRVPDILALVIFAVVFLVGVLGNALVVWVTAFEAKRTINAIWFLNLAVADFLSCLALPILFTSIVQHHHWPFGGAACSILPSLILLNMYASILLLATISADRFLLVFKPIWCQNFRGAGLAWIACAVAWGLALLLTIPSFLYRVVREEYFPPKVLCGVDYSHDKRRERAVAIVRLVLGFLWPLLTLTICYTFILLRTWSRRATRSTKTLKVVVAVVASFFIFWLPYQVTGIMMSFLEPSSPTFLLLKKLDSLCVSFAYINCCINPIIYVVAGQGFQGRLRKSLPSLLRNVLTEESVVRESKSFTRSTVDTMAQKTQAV
Briefly: Determination of the IC50 value in an enzyme release assay (functional assay, antagonistic activity). It counts as cell-based. The conditions noted are these: antagonistic activity; IC50 group in enzyme release assay, RBL cells expressing human C5aR(CD88); read-out: activity (group).

Non-standard residues stand in square brackets, D forms with d. Residues, ends and D or L forms follow the SMILES beside them. *: point of attachment. Phe(3-Cl) = N[C@@H](Cc1cccc(Cl)c1)C(=O)O; Phe(4-F) = N[C@@H](Cc1ccc(F)cc1)C(=O)O; 1Nal = N[C@@H](Cc1cccc2ccccc12)C(=O)O; Bta = N[C@@H](Cc1csc2ccccc12)C(=O)O; d(hCha) = N[C@H](CCC1CCCCC1)C(=O)O; Hydrocinnamoyl = O=C(CCc1ccccc1)*; Hyp = O=C(O)[C@@H]1C[C@@H](O)CN1; hArg = N=C(N)NCCCC[C@H](N)C(=O)O; 3Pal = N[C@@H](Cc1cccnc1)C(=O)O; Tic = O=C(O)[C@@H]1Cc2ccccc2CN1; dCha = N[C@H](CC1CCCCC1)C(=O)O; dChg = N[C@@H](C(=O)O)C1CCCCC1; Phg = N[C@H](C(=O)O)c1ccccc1; Pip = O=C(O)[C@@H]1CCCCN1; Nle = CCCC[C@H](N)C(=O)O; Orn = NCCC[C@H](N)C(=O)O; Aze = O=C(O)[C@@H]1CCN1; X13 = c1ccc2c(c1)nnn2C*; Ms = CS(=O)(=O)*; Acm = CC(=O)NC*

On to `CC(=O)N[C@@H](Cc1ccccc1)C(=O)N[C@@H](CCCN)C(=O)N1CCCC[C@H]1C(=O)N[C@H](CC1CCCCC1)C(=O)N[C@@H](Cc1c[nH]c2ccccc12)C(=O)N[C@@H](Cc1ccccc1)C(N)=O` [Compound 92, Ac-Phe-Orn-Pip-cha-Trp-Phe-NH2] (Ac-F[Orn][Pip][dCha]WF-NH2), for which the IC50 was 50 to 200 nM. `CC(=O)N[C@@H](Cc1ccccc1)C(=O)N[C@@H](CCCN)C(=O)N1C[C@H](O)C[C@H]1C(=O)N[C@H](CC1CCCCC1)C(=O)N[C@@H](Cc1c[nH]c2ccccc12)C(=O)N[C@@H](Cc1ccccc1)C(N)=O` [Compound 93, Ac-Phe-Orn-Hyp-cha-Trp-Phe-NH2] (Ac-F[Orn][Hyp][dCha]WF-NH2): the IC50 fell in the range of 200 to 2000 nM.

Turning to `CC(=O)N[C@@H](Cc1ccccc1)C(=O)N[C@@H](CCCN)C(=O)N1CCC[C@H]1C(=O)N[C@H](CC1CCCCC1)C(=O)N[C@@H](Cc1c[nH]c2ccccc12)C(=O)N[C@@H](Cc1cccc2ccccc12)C(N)=O` [Compound 94, Ac-Phe-Orn-Pro-cha-Trp-1Ni—NH2] (Ac-F[Orn]P[dCha]W[1Nal]-NH2), the IC50 fell in the range of 20 to 50 nM.

For `CNC(=O)[C@H](Cc1ccccc1)NC(=O)[C@H](Cc1csc2ccccc12)NC(=O)[C@@H](CC1CCCCC1)NC(=O)[C@@H]1CCN1C(=O)[C@H](CCCN)NC(=O)[C@H](Cc1ccccc1)NC(C)=O` [Compound 95, Ac-Phe-Orn-Aze-cha-Bta-Phe-NH—Me] (Ac-F[Orn][Aze][dCha][Bta]F-NHMe), the IC50 lay in the range of 200 to 2000 nM. For the compound `CS(=O)(=O)N[C@@H](Cc1ccccc1)C(=O)N[C@@H](CCCN)C(=O)N1CC[C@H]1C(=O)N[C@H](CC1CCCCC1)C(=O)N[C@@H](Cc1csc2ccccc12)C(=O)N[C@@H](Cc1ccccc1)C(N)=O` [Compound 96, CH3—SO2-Phe-Orn-Aze-cha-Bta-Phe-NH2] (Ms-F[Orn][Aze][dCha][Bta]F-NH2), the IC50 fell in the range of 20 to 50 nM. In the case of `CC(=O)N[C@@H](Cc1ccccc1)C(=O)N[C@@H](CCCN)C(=O)N1CC[C@H]1C(=O)N[C@H](CC1CCCCC1)C(=O)N[C@@H](Cc1ccc(F)cc1)C(=O)N[C@@H](Cc1ccccc1)C(N)=O` [Compound 99, Ac-Phe-Orn-Aze-cha-Pff-Phe-NH2] (Ac-F[Orn][Aze][dCha][Phe(4-F)]F-NH2) it was 50 to 200 nM. For the compound `CC(=O)N[C@@H](Cc1ccccc1)C(=O)N[C@@H](CCCN)C(=O)N1CC[C@H]1C(=O)N[C@H](CC1CCCCC1)C(=O)N[C@@H](Cc1cccc(Cl)c1)C(=O)N[C@@H](Cc1ccccc1)C(N)=O` [Compound 100, Ac-Phe-Orn-Aze-cha-Mcf-Phe-NH2] (Ac-F[Orn][Aze][dCha][Phe(3-Cl)]F-NH2), the IC50 lay within 50 to 200 nM. For `CC(=O)N[C@@H](Cc1ccccc1)C(=O)N[C@@H](CCCNC(=N)N)C(=O)N1CCC[C@H]1C(=O)N[C@H](CC1CCCCC1)C(=O)N[C@@H](Cc1c[nH]c2ccccc12)C(=O)N[C@@H](Cc1ccccc1)C(N)=O` [Compound 104, Ac-Phe-Arg-Pro-cha-Trp-Phe-NH2] (Ac-FRP[dCha]WF-NH2), the IC50 lay within 50 to 200 nM.

On to `NCCC[C@H](NC(=O)CCc1ccccc1)C(=O)N1CC[C@H]1C(=O)N[C@H](CC1CCCCC1)C(=O)N[C@@H](Cc1csc2ccccc12)C(=O)N[C@@H](Cc1ccccc1)C(N)=O` [Compound 106, 3PP-Orn-Aze-cha-Bta-Phe-NH2] (Hydrocinnamoyl-[Orn][Aze][dCha][Bta]F-NH2), for which the IC50 lay within 50 to 200 nM.

As to `CC(=O)N[C@@H](Cc1ccccc1)C(=O)N[C@@H](CCCN)C(=O)N1Cc2ccccc2C[C@H]1C(=O)N[C@H](CC1CCCCC1)C(=O)N[C@@H](Cc1c[nH]c2ccccc12)C(=O)N[C@@H](Cc1ccccc1)C(N)=O` [Compound 107, Ac-Phe-Orn-Tic-cha-Trp-Phe-NH2] (Ac-F[Orn][Tic][dCha]WF-NH2), the IC50 is 50 to 200 nM.

Take `CC(=O)N[C@@H](Cc1ccccc1)C(=O)N[C@@H](CCCN)C(=O)N[C@@H](CO)C(=O)N[C@H](CC1CCCCC1)C(=O)N[C@@H](Cc1c[nH]c2ccccc12)C(=O)N[C@@H](Cc1ccccc1)C(N)=O` [Compound 108, Ac-Phe-Orn-Ser-cha-Trp-Phe-NH2] (Ac-F[Orn]S[dCha]WF-NH2): the IC50 lay within 20 to 50 nM. With `CC(=O)N[C@@H](Cc1ccccc1)C(=O)N[C@@H](CCCN)C(=O)N1CCC[C@H]1C(=O)N[C@@H](C(=O)N[C@@H](Cc1c[nH]c2ccccc12)C(=O)N[C@@H](Cc1ccccc1)C(N)=O)C1CCCCC1` [Compound 109, Ac-Phe-Orn-Pro-chg-Trp-Phe-NH2] (Ac-F[Orn]P[dChg]WF-NH2), the IC50 was 50 to 200 nM. In the case of `CC(=O)N[C@@H](Cc1ccccc1)C(=O)N[C@@H](CCCN)C(=O)N1CCC[C@H]1C(=O)N[C@H](CCC1CCCCC1)C(=O)N[C@@H](Cc1c[nH]c2ccccc12)C(=O)N[C@@H](Cc1ccccc1)C(N)=O` [Compound 110, Ac-Phe-Orn-Pro-hch-Trp-Phe-NH2] (Ac-F[Orn]P[d(hCha)]WF-NH2), the IC50 was 20 to 50 nM. Regarding `CC(=O)N[C@@H](Cc1ccccc1)C(=O)N[C@@H](CCCN)C(=O)N1CCC[C@H]1C(=O)N[C@H](CC1CCCCC1)C(=O)N[C@@H](Cc1c[nH]c2ccccc12)C(=O)N[C@H](C(N)=O)c1ccccc1` [Compound 111, Ac-Phe-Orn-Pro-cha-Trp-Phg-NH2] (Ac-F[Orn]P[dCha]W[Phg]-NH2), the IC50 is 200 to 2000 nM. With `CC(=O)N[C@@H](Cc1ccccc1)C(=O)N[C@@H](Cc1csc2ccccc12)C(=O)N1CC[C@H]1C(=O)N[C@H](CC1CCCCC1)C(=O)N[C@@H](Cc1csc2ccccc12)C(=O)N[C@@H](Cc1ccccc1)C(N)=O` [Compound 112, Ac-Phe-Bta-Aze-cha-Bta-Phe-NH2] (Ac-F[Bta][Aze][dCha][Bta]F-NH2), the IC50 was 20 to 50 nM. For the compound `CC(=O)N[C@@H](Cc1ccccc1)C(=O)N[C@@H](Cc1c[nH]c2ccccc12)C(=O)N1CCC[C@H]1C(=O)N[C@H](CC1CCCCC1)C(=O)N[C@@H](Cc1csc2ccccc12)C(=O)N[C@@H](Cc1ccccc1)C(N)=O` [Compound 113, Ac-Phe-Trp-Pro-cha-Bta-Phe-NH2] (Ac-FWP[dCha][Bta]F-NH2), the IC50 lay within 50 to 200 nM.

Regarding `CC(=O)N[C@@H](Cc1ccccc1)C(=O)N[C@@H](CCCN)C(=O)N1CCCC[C@H]1C(=O)N[C@H](CC1CCCCC1)C(=O)N[C@@H](Cc1c[nH]c2ccccc12)C(=O)N[C@@H](Cc1ccccc1)C(=O)O` [Compound 115, Ac-Phe-Orn-Pip-cha-Trp-Phe-OH] (Ac-F[Orn][Pip][dCha]WF-OH), the IC50 lay within 200 to 2000 nM. For the compound `CC(=O)N[C@@H](Cc1ccccc1)C(=O)N[C@@H](CCCN)C(=O)N1Cc2ccccc2C[C@H]1C(=O)N[C@H](CC1CCCCC1)C(=O)N[C@@H](Cc1c[nH]c2ccccc12)C(=O)N[C@@H](Cc1ccccc1)C(=O)O` [Compound 116, Ac-Phe-Orn-Tic-cha-Trp-Phe-OH] (Ac-F[Orn][Tic][dCha]WF-OH), the IC50 is 200 to 2000 nM. Turning to `CC(=O)N[C@@H](Cc1ccccc1)C(=O)N[C@@H](CCCN)C(=O)N[C@@H](CO)C(=O)N[C@H](CC1CCCCC1)C(=O)N[C@@H](Cc1c[nH]c2ccccc12)C(=O)N[C@@H](Cc1ccccc1)C(=O)O` [Compound 117, Ac-Phe-Orn-Ser-cha-Trp-Phe-OH] (Ac-F[Orn]S[dCha]WF-OH), the IC50 lay within 200 to 2000 nM. Take `CC(=O)N[C@@H](Cc1ccccc1)C(=O)N[C@@H](CCCN)C(=O)N1CCC[C@H]1C(=O)N[C@@H](C(=O)N[C@@H](Cc1c[nH]c2ccccc12)C(=O)N[C@@H](Cc1ccccc1)C(=O)O)C1CCCCC1` [Compound 118, Ac-Phe-Orn-Pro-chg-Trp-Phe-OH] (Ac-F[Orn]P[dChg]WF-OH): the IC50 lay within 200 to 2000 nM. Take `CC(=O)N[C@@H](Cc1ccccc1)C(=O)N[C@@H](CSCn1nnc2ccccc21)C(=O)N1CCC[C@H]1C(=O)N[C@H](CC1CCCCC1)C(=O)N[C@@H](Cc1csc2ccccc12)C(=O)N[C@@H](Cc1ccccc1)C(N)=O` [Compound 119, Ac-Phe-Eec-Pro-cha-Bta-Phe-NH2] (Ac-FC(X13)P[dCha][Bta]F-NH2): the IC50 is 50 to 200 nM. For the compound `CCCC[C@H](NC(=O)[C@H](Cc1ccccc1)NC(C)=O)C(=O)N1CCC[C@H]1C(=O)N[C@H](CC1CCCCC1)C(=O)N[C@@H](Cc1csc2ccccc12)C(=O)N[C@@H](Cc1ccccc1)C(N)=O` [Compound 120, Ac-Phe-Nle-Pro-cha-Bta-Phe-NH2] (Ac-F[Nle]P[dCha][Bta]F-NH2), the IC50 was in the range of 50 to 200 nM. As to `CC(=O)N[C@@H](Cc1ccccc1)C(=O)N[C@@H](CCCCNC(=N)N)C(=O)N1CCC[C@H]1C(=O)N[C@H](CC1CCCCC1)C(=O)N[C@@H](Cc1csc2ccccc12)C(=O)N[C@@H](Cc1ccccc1)C(N)=O` [Compound 121, Ac-Phe-Har-Pro-cha-Bta-Phe-NH2] (Ac-F[hArg]P[dCha][Bta]F-NH2), the IC50 was 20 to 50 nM. As for `CC(=O)N[C@@H](Cc1ccccc1)C(=O)N[C@@H](CCCNC(=N)N)C(=O)N1CCC[C@H]1C(=O)N[C@H](CC1CCCCC1)C(=O)N[C@@H](Cc1csc2ccccc12)C(=O)N[C@@H](Cc1ccccc1)C(N)=O` [Compound 122, Ac-Phe-Arg-Pro-cha-Bta-Phe-NH2] (Ac-FRP[dCha][Bta]F-NH2), the IC50 is 20 to 50 nM. For `CC(=O)NCSC[C@H](NC(=O)[C@H](Cc1ccccc1)NC(C)=O)C(=O)N1CCC[C@H]1C(=O)N[C@H](CC1CCCCC1)C(=O)N[C@@H](Cc1csc2ccccc12)C(=O)N[C@@H](Cc1ccccc1)C(N)=O` [Compound 123, Ac-Phe-Cys(Acm)-Pro-cha-Bta-Phe-NH2] (Ac-FC(Acm)P[dCha][Bta]F-NH2), the IC50 lay within 200 to 2000 nM. In the case of `CC(=O)N[C@@H](Cc1ccccc1)C(=O)N[C@@H](Cc1cccnc1)C(=O)N1CCC[C@H]1C(=O)N[C@H](CC1CCCCC1)C(=O)N[C@@H](Cc1csc2ccccc12)C(=O)N[C@@H](Cc1ccccc1)C(N)=O` [Compound 124, Ac-Phe-Mpa-Pro-cha-Bta-Phe-NH2] (Ac-F[3Pal]P[dCha][Bta]F-NH2), the IC50 is 50 to 200 nM.
